Reference: patent US6624150B2, “Method of treating gastrointestinal tract disease with purinergic receptor agonists” (Inspire Pharmaceuticals, Inc., priority 1999, dated 2003)

Assays:
T84 cells = assay: Intracellular calcium mobilization (Fluo-3 AM, FLIPR) in T84 cells; type: cell-based; settings: T84 human colonic epithelial cell line; FIG. 5
Source text: In addition, the pharmaceutical utility of P2Y agonist compounds of this invention are indicated by the intracellular calcium mobilization assay for P2Y activity. In this assay, cultured cells are stimulated with the increasing concentrations of P2Y receptor agonists. Intracellular calcium levels are monitored by measuring the changes in fluorescence intensity of a calcium-sensitive dye using the FLIPR (Molecular Devices Corp., Sunnyvale, Calif.) or equivalent instrumentation. A conventional technique is used to detect intracellular calcium mobilization induced by P2Y receptor agonists. The technique is familiar to those well versed in the art. Cells are seeded in 96-well plates and used for calcium mobilization assays. On the day of the assay, the growth medium is aspirated and replaced with a solution of Fluo-3 AM (2.5 μM final concentration) in an assay buffer consisting of (mM): KCI (10.0), NaCl (118), CaCl2(2.5), MgCl2 (1.0), HEPES (20), glucose (10), pH 7.4. Probenecid (Sigma Chemical Co.) is added to the dye load and dye wash medium at a working concentration of 2.5mM to increase dye retention in the cells. After a 60 minute incubation with Fluo-3 AM at 25° C., cells are washed free of dye (Columbus Plate Washer, TECAN U.S., Inc., Research Triangle Park, N.C.) and are stimulated with increasing concentrations of P2Y receptor agonists. Intracellular calcium levels are simultaneously monitored in each well by measuring the changes in fluorescence intensity using the FLIPR (Molecular Devices Corp., Sunnyvale, Calif.). T84 cells, a human colonic epithelial cell line, were subjected to the calcium mobilization assay described above. […] The activation of intracellular calcium mobilization by ATP and UTP in T84 and HT-29 cells indicate the pharmaceutical utility of P2Y receptor agonists in the gastrointestinal tract.

HT-29 cells [1] = assay: Intracellular calcium mobilization (Fluo-3 AM, FLIPR) in HT-29 cells; type: cell-based; settings: human colonic HT-29 cells; FIG. 6
Source text: In addition, the pharmaceutical utility of P2Y agonist compounds of this invention are indicated by the intracellular calcium mobilization assay for P2Y activity. In this assay, cultured cells are stimulated with the increasing concentrations of P2Y receptor agonists. Intracellular calcium levels are monitored by measuring the changes in fluorescence intensity of a calcium-sensitive dye using the FLIPR (Molecular Devices Corp., Sunnyvale, Calif.) or equivalent instrumentation. A conventional technique is used to detect intracellular calcium mobilization induced by P2Y receptor agonists. The technique is familiar to those well versed in the art. Cells are seeded in 96-well plates and used for calcium mobilization assays. On the day of the assay, the growth medium is aspirated and replaced with a solution of Fluo-3 AM (2.5 μM final concentration) in an assay buffer consisting of (mM): KCI (10.0), NaCl (118), CaCl2(2.5), MgCl2 (1.0), HEPES (20), glucose (10), pH 7.4. Probenecid (Sigma Chemical Co.) is added to the dye load and dye wash medium at a working concentration of 2.5mM to increase dye retention in the cells. […] Intracellular calcium levels are simultaneously monitored in each well by measuring the changes in fluorescence intensity using the FLIPR (Molecular Devices Corp., Sunnyvale, Calif.). […]

Goblet cells = Goblet cells in vitro; Lethem et al. 1993; cited from earlier work
HT-29 cells [2] = settings: Otero et al. Mol Cell Biochem 2000; cited from earlier work

SMILES	calcium mobilization (T84 cells)	calcium mobilization (P2Y response) (HT-29 cells [1])	rate and total amount of mucin secretion (Goblet cells)	calcium mobilization (HT-29 cells [2])
CSc1nc(N)c2ncn([C@@H]3O[C@H](COP(=O)(O)OP(=O)(O)O)[C@@H](O)[C@H]3O)c2n1 [2-methylthioADP]	did not simulate calcium mobilization	–	–	–
Nc1ncnc2c1ncn2[C@@H]1O[C@H](COP(=O)(O)OP(=O)(O)OP(=O)(O)O)[C@@H](O)[C@H]1O [ATP, 5′-adenosine triphosphate]	stimulate calcium mobilization	robust P2Y response	–	–
O=c1ccn([C@@H]2O[C@H](COP(=O)(O)OP(=O)(O)OP(=O)(O)O)[C@@H](O)[C@H]2O)c(=O)[nH]1 [UTP, uridine 5′-triphosphate]	stimulate calcium mobilization	robust P2Y response	increase both the rate and total amount of mucin secretion	stimulated calcium mobilization
